By IC50 is commonly meant the concentration that gives 50% inhibition. Read a high IC50 as weaker potency in that assay. As usually defined, the MBC is the lowest tested concentration that kills the bacteria rather than only halting them. Broadly, the MIC is the least concentration at which growth counts as inhibited.

Data set [1] can be described thus: Electrode potential measurement with Br− selective electrode (potentiometry). The format is physicochemical. The following applies: 298 K. The protocol: The electrode potential measurements were performed for the Br^− counterion using the I-160MI laboratory ionomer (JSC Scientific and Production Association of the Measuring Equipment, Moscow, Russia). Br^− selective electrode (ELIS-131Br) and a reference electrode (ESr-10101) were used for measurement of the electromotive force (ΔE) of aqueous solution of surfactants (the concentration from 0.02 to 0.5 mM for 12-12-12(Et); from 0.002 to 0.05 mM for 14-12-14(Et)). To calibrate the ionomer, a series of KBr solutions were prepared in the concentration range of 0.1 mM to 100 mM.
β = 0.5(2Ct − CBr^−)/(Ct − cmc).

For data set [2], the target named is T1, human butyrylcholinesterase (hBChE) (Homo sapiens, UniProt P06276).
T1 construct: purchased Sigma-Aldrich
T1 sequence (P06276 29-602): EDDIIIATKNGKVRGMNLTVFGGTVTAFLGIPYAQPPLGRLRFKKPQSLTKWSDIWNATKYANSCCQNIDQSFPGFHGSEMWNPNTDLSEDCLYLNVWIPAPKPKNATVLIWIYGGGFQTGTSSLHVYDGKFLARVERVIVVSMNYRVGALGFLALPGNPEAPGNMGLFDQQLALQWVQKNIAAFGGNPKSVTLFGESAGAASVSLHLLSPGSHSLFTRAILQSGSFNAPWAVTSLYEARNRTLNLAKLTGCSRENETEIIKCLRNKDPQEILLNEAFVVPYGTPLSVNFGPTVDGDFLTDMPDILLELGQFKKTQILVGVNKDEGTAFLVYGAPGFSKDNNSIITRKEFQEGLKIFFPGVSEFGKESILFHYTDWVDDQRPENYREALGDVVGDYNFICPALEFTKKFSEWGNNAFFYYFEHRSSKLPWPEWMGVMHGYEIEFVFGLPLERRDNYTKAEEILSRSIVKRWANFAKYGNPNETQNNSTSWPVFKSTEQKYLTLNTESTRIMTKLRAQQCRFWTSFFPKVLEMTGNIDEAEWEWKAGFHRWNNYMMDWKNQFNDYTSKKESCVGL
The experiment in a line: In vitro cholinesterase inhibition, Ellman's method (hBChE). The data set is classed as biochemical. The protocol: (§1) Stock solutions (0.01 M) of the compounds were dissolved in H2O. The inhibitory activity of compounds against hAChE and hBChE was measured using Ellman’s method. Enzyme-catalyzed hydrolysis was carried out in 0.1 M PBS (pH = 8.0) containing 0.1 nM hAChE or hBChE, 0.1 mM 5,5′-dithiobis-(2-nitrobenzoic acid) and 1mM acetylthiocholine or butyrylthiocholine as substrates. The tested compounds were incubated with the enzyme for 5 min prior to the addition of the substrate. Analyses were performed at 298 K using a Shimadzu UV-1800 spectrophotometer (Shimadzu Co., Kyoto, Japan) at 412 nm. The substrate hydrolysis rate was measured within 2 min. A sample without inhibitor was used as a control (100% cholinesterase activity). A sample without substrate was used as a blank. The experiments were conducted in triplicate. The percentage of enzyme inhibition was determined using OriginPro 8.5 software (OriginLab Corporation, Northampton, MA, USA) by plotting a percentage of the inhibition versus compound concentration. IC50 values (inhibitor concentration required to inhibit enzyme activity by 50%) were determined by the Hill equation: E/Emax=[I]^n/IC50n+[I]^n, where E is enzyme activity in the presence of the compound, and [I] is the compound concentration.
In general terms: Ellman's reagent forms a yellow product with free thiols.

Data set [3] concerns Pseudomonas aeruginosa ATCC 9027. The data set is described as follows: Antimicrobial activity (Pa). The data set is classed as cell-based. The following applies: Pseudomonas aeruginosa. As to the method: (§2) The antimicrobial activity of the compounds was tested on Gram-positive Staphylococcus aureus ATCC 6538P FDA 209P (Sa), Bacillus cereus ATCC 10702 NCTC 8035 (Bc), Enterococcus faecalis ATCC 29212 (Ef), and Gram-negative bacteria Escherichia coli ATCC 25922 (Ec), Pseudomonas aeruginosa ATCC 9027 (Pa), including methicillin-resistant strains of S. aureus MRSA-1 (resistant to fluoroquinolones and beta-lactams) and MRSA-2 (resistant to beta-lactams). Antifungal activity was studied against Candida albicans ATCC 10231 (Ca), Trichophyton mentagrophytes var. gypseum 1773 (Tm), and Aspergillus niger BKMF-1119 (An). A more detailed description of the experiment is published in [21].

Data set [4] has as its target T2, human acetylcholinesterase (hAChE) (Homo sapiens, UniProt P22303).
T2 construct: purchased Sigma-Aldrich
The data set is described as follows: biochemical. As to the method:
as §1

In data set [5] the test system is Bacillus cereus ATCC 10702 NCTC 8035. The experiment in a line: Antimicrobial activity (Bc). The data set is classed as cell-based. The following applies: Bacillus cereus. As to the method:
as §2

T2 sequence (P22303 32-614): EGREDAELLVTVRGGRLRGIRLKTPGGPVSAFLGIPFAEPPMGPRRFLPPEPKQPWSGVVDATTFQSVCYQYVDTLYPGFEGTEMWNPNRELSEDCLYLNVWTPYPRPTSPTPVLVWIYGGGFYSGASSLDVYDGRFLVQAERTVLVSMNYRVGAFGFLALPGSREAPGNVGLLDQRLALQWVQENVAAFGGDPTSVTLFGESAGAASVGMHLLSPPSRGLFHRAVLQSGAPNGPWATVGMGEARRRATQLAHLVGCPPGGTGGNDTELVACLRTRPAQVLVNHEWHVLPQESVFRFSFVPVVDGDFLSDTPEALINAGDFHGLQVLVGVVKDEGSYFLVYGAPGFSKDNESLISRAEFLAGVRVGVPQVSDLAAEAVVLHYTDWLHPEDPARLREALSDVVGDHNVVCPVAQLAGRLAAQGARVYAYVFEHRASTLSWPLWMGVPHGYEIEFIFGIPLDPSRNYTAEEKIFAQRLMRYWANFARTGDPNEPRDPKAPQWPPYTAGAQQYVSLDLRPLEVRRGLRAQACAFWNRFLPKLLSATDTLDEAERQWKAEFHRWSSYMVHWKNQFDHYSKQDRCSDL

Turning to `CCCCCCCCCCCCCC[N+](C)(CCCCCCCCCCCC[N+](C)(CCCCCCCCCCCCCC)CCOC(=O)NCC)CCOC(=O)NCC` (centres unmarked) [14-12-14(Et)], the “βpot (degree of counterion binding)” value in data set [1] came out at 0.3. Further, the half-maximal inhibitory concentration (IC50) in data set [2] was 1440 ± 520 nM; in data set [4], 11 ± 0.5 nM. The minimum bactericidal concentration (MBC) is 125 ± 10 µg/mL in data set [3] (ATCC9027, read-out: MBC, Pa) and 125 ± 9 µg/mL in data set [5] (read-out: MBC, Bc). In addition, the minimal inhibitory concentration (MIC) is 125 ± 10 µg/mL in data set [3] (ATCC9027, read-out: MIC, Pa) and 125 ± 10 µg/mL in data set [5] (read-out: MIC, Bc). Besides, the “SIhBChE/hAChE (selectivity index)” value in data set [4] (IC50 hBChE / IC50 hAChE) came to 131.

The values above are taken from article PMC10419252, “Synthesis, Properties, and Biomedical Application of Dicationic Gemini Surfactants with Dodecane Spacer and Carbamate Fragments” (International Journal of Molecular Sciences, 2023).
